Experimental data published in US10709715B2, “Method of treating hypertension” (Cipla Limited, priority 2017, dated 2020).
Several values for one entry are separate records, joined by “and”; a condition that tells them apart may be missing. Identical values can stand only once. Like-named read-outs stand apart in the source and are kept apart here.

Key:
[1] = system: rats with monocrotaline induced pulmonary arterial hypertension; assay: Monocrotaline rat model for treatment of pulmonary arterial hypertension, dosing Day 14 till Day 28 (Example 2); type: in vivo, Male Sprague-Dawley rats; settings: for inhibition at 30 mg/kg: Rattus norvegicus, po
Procedure: The studies were conducted for hemodynamic evaluation of Temozolomide in anesthetized Sprague Dawley rats treated with monocrotaline (“MCT”) to induce pulmonary arterial hypertension. Sildenafil was used as an internal control to compare the effects of temozolomide
The effects of temozolomide were evaluated in rats with monocrotaline induced pulmonary arterial hypertension using sildenafil as standard care treatment. Male Sprague-Dawley rats were orally administered vehicle, temozolomide (30 mg/kg, given once daily every day starting on Day 14 till Day 28), or sildenafil (100 mg/kg, given once daily every day starting on Day 14 till Day 28) (n=12 in each group). Rats received a single injection of monocrotaline (50 mg/kg, s.c.) on Study Day 1. On the twenty-eighth day following monocrotaline dosing, the rats were anesthetized with ketamine/xylazine for terminal monitoring of pulmonary and systemic arterial pressures along with heart rate.
Test Item: Vehicle (0.5% Methylcellulose+0.2% Tween 80 in deionized water, temozolomide (30 mg/kg given once daily starting on Day 14 till Day 28; Sildenafil (100 mg/kg, administered once daily starting on Day 14 till Day 28)
(§1) Route of Administration: Oral
Study Design: The study was planned and conducted according to design depicted below in Table 7
Pulmonary arterial hypertension was induced by injecting 50 mg/kg dose of monocrotaline (3 mL/Kg MCT in 50% DMSO in water) subcutaneously to all the randomized Male Sprague-Dawley rats of Groups VII, VIII, IX, and X (except negative control group). Negative control group (Group VI, DMSO group) received a single dose of 3 mL/kg 50% DMSO in water for injection subcutaneously. Male Sprague-Dawley rats in groups VII, VIII, IX, and X were administered 50 mg/kg of body weight of monocrotaline in DMSO subcutaneously to induce PAH on day 1. The rats of vehicle positive control group (Group VIII) received 5 ml of vehicle every morning. The rats of the temozolomide group (Group IX) were orally administered Temozolomide (30 mg/kg given once daily starting on Day 14 till Day 28) and rats of sildenafil group (Group X) were orally administered sildenafil (100 mg/kg given once daily starting on Day 14 till Day 28). On the twenty-eighth day after monocrotaline dosing, the rats were anesthetized with ketamine/xylazine for terminal monitoring of pulmonary and systemic arterial pressures along with heart rate. It is understood that from day 1 till administration of test compounds i.e till day 14, rates of all groups were suffering from PAH due to administration of MCT. Thus the study was conducted to evaluate the efficacy of Temozolomide treatment for PAH. Sildenafil was used as an internal control to compare the effects of Temozolomide.

[2] = system: rats with monocrotaline induced pulmonary arterial hypertension; assay: Monocrotaline rat model for pulmonary arterial hypertension, dosing from Day 1 for 28 days (Example 1); type: in vivo, Male Sprague-Dawley rats
Procedure: The studies were conducted for hemodynamic evaluation of temozolomide in anesthetized sprague dawley rats treated with monocrotaline (“MCT”) to induce pulmonary arterial hypertension. Sildenafil was used as an internal control to compare the effects of temozolomide.
The effects of temozolomide were evaluated in rats with monocrotaline induced pulmonary arterial hypertension using sildenafil as standard care treatment. Male Sprague-Dawley rats were orally administered vehicle, temozolomide (10 mg/kg given once daily every day for 28 days starting on Day 1), or sildenafil (100 mg/kg, administered once daily every day for 28 days starting on Day 1) (n=12 in each group). Rats received a single injection of monocrotaline (50 mg/kg, s.c.) on Study Day 1. On the twenty-eighth day following monocrotaline dosing, the rats were anesthetized with ketamine/xylazine for terminal monitoring of pulmonary and systemic arterial pressures along with heart rate.
Test Item: Vehicle (0.5% Methylcellulose+0.2% Tween 80 in deionized water, Temozolomide (10 mg/kg given once daily for 28 days; Sildenafil (100 mg/kg administered once daily)
as §1
Study Design: The study was planned and conducted according to design depicted below in Table 1
Pulmonary arterial hypertension was induced by injecting monocrotaline (3 mL/Kg MCT in 50% DMSO in water) subcutaneously at a dose of 50 mg/kg of body weight to all the randomized Male Sprague-Dawley rats of Groups II, III,IV and V (except negative control group). Negative control group (Group I, DMSO group) received a single dose of 3 mL/kg 50% DMSO in water for injection subcutaneously. The positive control group (Group III) received 5 ml of vehicle every morning. The rats of temozolomide group (Group IV) were orally administered temozolomide (10 mg/kg given once daily for 28 days starting on Day 1) and rats of sildenafil group (Group V) were orally administered sildenafil (100 mg/kg given once daily for 28 days starting on Day 1) On the twenty-eighth day after monocrotaline dosing, the rats were anesthetized with ketamine/xylazine for terminal monitoring of pulmonary and systemic arterial pressures along with heart rate.

[3] = cited from earlier work
[4] = group mean, Temozolomide 30 mg/Kg p.o. QD Day 14 till Day 28, Day 28
[5] = individual animals, Temozolomide 30 mg/Kg p.o. QD Day 14 till Day 28, Day 28
[6] = group mean, Temozolomide 10 mg/Kg p.o. QD 28 days from Day 1, Day 28
[7] = individual animals, Temozolomide 10 mg/Kg p.o. QD 28 days from Day 1, Day 28
[8] = administered after a modified high-fat breakfast

Question: Which inhibition at 30 mg/kg ([1]; Temozolomide 30 mg/Kg p.o. QD Day 14 till Day 28, positive control = 0.00, read-out: % Inhibition of Right Ventricular Pressure (RVP)) does the source give for `Cn1nnc2c(C(N)=O)ncn2c1=O` [Temozolomide] here?
Answer: 53.9%

Question: And the inhibition at 30 mg/kg ([1]; Temozolomide 30 mg/Kg p.o. QD Day 14 till Day 28, positive control = 0.00, read-out: % Inhibition of Right Ventricular Systolic Pressure (RVSP))?
Answer: 44.8%

Question: What about the “% Inhibition of Fulton index : Hypertrophy (RV/LV + S)” value ([1]; Temozolomide 30 mg/Kg p.o. QD Day 14 till Day 28, positive control = 0.00) of the same compound?
Answer: 19.83%

Question: And the “activity in treatment of PAH” value ([1]; Temozolomide 30 mg/kg vs Sildenafil 100 mg/kg)?
Answer: comparable among with Sildenafil activity

Question: What about the “systolic and mean pulmonary arterial pressures compared to the vehicle group” value ([1]; after 28 days, 30 mg/kg/QD/day, Day 14 till Day 28) of the same compound?
Answer: differences in systolic and mean pulmonary arterial pressures

Question: What about the “Fulton index: Hypertrophy (RV/LV + S), Mean” value [1, 4] of the same compound?
Answer: 0.444

Question: And the “Right Ventricle weight, Mean” value [1, 4]?
Answer: 0.274 gms

Question: And the “Right Ventricular Pressure (RVP), Mean” value [1, 4]?
Answer: 15.802 mmHg

Question: And the “Right Ventricular Systolic Pressure (RVSP), Mean” value [1, 4]?
Answer: 37.936 mmHg

Question: What about the “Right ventricle/Body weight, Mean” value [1, 4] of the same compound?
Answer: 0.0009

Question: And the “Fulton index: Hypertrophy (RV/LV + S)” value [1, 5]?
Answer: 0.502 and 0.480 and 0.481 (2×) and 0.382 and 0.357 and 0.485 and 0.506 and 0.341 and 0.427

Question: And the “Right Ventricle weight” value [1, 5]?
Answer: 0.311 gms and 0.286 gms and 0.210 gms and 0.237 gms and 0.273 gms and 0.343 gms and 0.232 gms and 0.245 gms and 0.283 gms and 0.318 gms

Question: And the “Right Ventricular Pressure (RVP)” value [1, 5]?
Answer: 15.151 mmHg and 19.476 mmHg and 14.308 mmHg and 12.295 mmHg and 15.993 mmHg and 21.577 mmHg and 22.479 mmHg and 12.349 mmHg and 12.363 mmHg and 12.035 mmHg

Question: What about the “Right ventricle/Body weight” value [1, 5] of the same compound?
Answer: 0.0011 (3×) and 0.0010 and 0.0008 (3×) and 0.0007 and 0.0009 (2×)

Question: What about the “Right Ventricular Systolic Pressure (RVSP)” value ([1]; individual animals, Temozolomide 30 mg/Kg p.o. QD Day 14 till Day 28, MCT 50 mg/kg s.c. Day 1, Day 28) of the same compound?
Answer: 39.693 mmHg and 42.429 mmHg and 31.561 mmHg and 36.888 mmHg and 37.763 mmHg and 48.504 mmHg and 45.392 mmHg and 33.928 mmHg and 29.989 mmHg and 33.218 mmHg

Question: What about the “activity in controlling or reducing PAH” value ([2]; Temozolomide 10 mg/kg vs Sildenafil 100 mg/kg) of the same compound?
Answer: comparable among with Sildenafil activity

Question: What about the “systolic and mean pulmonary arterial pressures compared to the vehicle group” value ([2]; after 28 days, 10 mg/kg/QD/day) of the same compound?
Answer: differences in systolic and mean pulmonary arterial pressures

Question: What about the “Fulton index: Hypertrophy (RV/LV + S), Mean” value [2, 6] of the same compound?
Answer: 0.342

Question: And the “RV/Body wt, Mean” value [2, 6]?
Answer: 0.0007

Question: And the “Right Ventricular Pressure (RVP), Mean” value [2, 6]?
Answer: 15.548 mmHg

Question: And the “Right Ventricular Systolic Pressure (RVSP), Mean” value [2, 6]?
Answer: 33.732 mmHg

Question: What about the “Right ventricle (RV), Mean” value [2, 6] of the same compound?
Answer: 0.227 g

Question: What about the “Fulton index: Hypertrophy (RV/LV + S)” value [2, 7] of the same compound?
Answer: 0.325 and 0.333 and 0.450 and 0.294 and 0.406 and 0.287 and 0.277 and 0.255 and 0.519 and 0.345 and 0.273

Question: What about the RV/Body wt [2, 7] of the same compound?
Answer: 0.0006 (3×) and 0.0008 (2×) and 0.0005 (4×) and 0.0011 and 0.0007

Question: What about the “Right Ventricular Pressure (RVP)” value [2, 7] of the same compound?
Answer: 11.178 mmHg and 15.927 mmHg and 16.493 mmHg and 19.994 mmHg and 15.532 mmHg and 12.593 mmHg and 16.840 mmHg and 17.431 mmHg and 16.896 mmHg and 16.462 mmHg and 11.679 mmHg

Question: And the “Right ventricle (RV)” value [2, 7]?
Answer: 0.244 g and 0.220 g (2×) and 0.298 g and 0.202 g and 0.268 g and 0.218 g and 0.197 g and 0.167 g and 0.311 g and 0.156 g

Question: And the “Right Ventricular Systolic Pressure (RVSP)” value ([2]; individual animals, Temozolomide 10 mg/Kg p.o. QD 28 days from Day 1, MCT 50 mg/kg s.c., Day 28)?
Answer: 29.626 mmHg and 33.857 mmHg and 35.059 mmHg and 38.531 mmHg and 30.456 mmHg and 30.333 mmHg and 36.128 mmHg and 35.368 mmHg and 40.220 mmHg and 33.582 mmHg and 27.895 mmHg

Question: And the AUC decrease [3, 8]?
Answer: 9%

Question: And the “Mean peak plasma concentration decrease” value [3, 8]?
Answer: 32%

Question: And the “median Tmax” value [3, 8]?
Answer: 2.25 h

Question: And the “median Tmax increase” value [3, 8]?
Answer: 2 fold

Question: And the absorption ([3]; oral administration)?
Answer: rapidly and completely absorbed
